Laboratory results published in US20230399287A1, “NOVEL COMPOUNDS” (Sitryx Therapeutics Limited, priority 2020, published 2023).

Legend:
[1] = system: IL-1β; experiment: THP-1 AlphaLISA IL-1β cytokine assay; format: cell-based; conditions: Homo sapiens, THP-1, differentiated THP-1 cells, LPS 24 hr then Nigericin 1 hour
Experimental: (§1) Measuring Inhibitory Effects on IL-1V and IL-6 Cytokine Output from THP-1s
(§2) The cytokine inhibition profiles of compounds of formula (I) were determined in a differentiated THP-1 cell assay. All assays were performed in RPMI-1640 growth medium (Gibco), supplemented with 10% fetal bovine serum (FBS; Gibco), 1% penicillin-streptomycin and 1% sodium pyruvate unless specified otherwise. The IL-1β and IL-6 cytokine inhibition assays were run in a background of differentiated THP-1 cells as described below. All reagents described were from Sigma-Aldrich unless specified otherwise. Compounds were prepared as 10 mM DMSO stocks.
(§3) THP-1 cells were expanded as a suspension up to 80% confluence in appropriate growth medium. Cells were harvested, suspended, and treated with an appropriate concentration of phorbol 12-myristate 13-acetate (PMA) over a 72 hr period (37° C./5% CO2).
(§4) Following 72 hrs of THP-1 cell incubation, cellular medium was removed and replaced with fresh growth media containing 1% of FBS. Working concentrations of compounds were prepared separately in 10% FBS treated growth medium and pre-incubated with the cells for 30 minutes (37° C./5% CO2). Following the 30 minute compound pre-incubation, THP-1s were treated with an appropriate concentration of LPS and the THP-1s were subsequently incubated for a 24 hr period (37° C./5% CO2). An appropriate final concentration of Nigericin was then dispensed into the THP-1 plates and incubated for 1 hour (37° C./5% CO2) before THP-1 supernatants were harvested and collected in separate polypropylene 96-well holding plates.
(§5) Reagents from each of the IL-1β and IL-6 commercial kits (Perkin Elmer) were prepared and run according to the manufacturer's instructions. Subsequently, fluorescence signal detection in a microplate reader was measured (EnVision® Multilabel Reader, Perkin Elmer).
(§6) Percentage inhibition was calculated per cytokine by normalising the sample data to the high and low controls used within each plate (+/−LPS respectively). Percentage inhibition was then plotted against compound concentration and the 50% inhibitory concentration ([…]) was determined from the resultant concentration-response curve.

[2] = system: IL-6; experiment: THP-1 AlphaLISA IL-6 cytokine assay; format: cell-based; conditions: Homo sapiens, THP-1, differentiated THP-1 cells, LPS 24 hr then Nigericin 1 hour
Experimental: as §1, §2, §3, §4, §5, §6

[3] = system: hepatocytes; experiment: Hepatocyte stability assay (human); format: in vitro ADME; conditions: 10 μM compound, 60 min
Source text: (§7) Defrosted cryo-preserved hepatocytes (viability>70%) were used to determine the metabolic stability of a compound via calculation of intrinsic clearance (Clint; a measure of the removal of a compound from the liver in the absence of blood flow and cell binding). Clearance data are particularly important for in vitro work as they can be used in combination with in vivo data to predict the half-life and oral bioavailability of a drug.
(§8) The metabolic stability in hepatocytes assay involved a time-dependent reaction using both positive and negative controls. The cells must be pre-incubated at 37° C. then spiked with test compound (and positive control); samples taken at pre-determined time intervals were analysed to monitor the change in concentration of the initial drug compound over 60 minutes. A buffer incubation reaction (with no hepatocytes present) acted as a negative control and two cocktail solutions, containing compounds with known high and low clearance values (verapamil/7-hydroxycoumarin and propranolol/diltiazem), acted as positive controls. • 1. The assay was run with a cell concentration of 0.5×10^6 cells/mL in Leibovitz buffer. • 2. All compounds and controls were run in duplicate. • 3. Compound concentration was 10 μM. • 4. All compounds and controls were incubated with both cells and buffer to show turnover is due to hepatic metabolism. • 5. All wells on the incubation plate had 326.7 μL of either cells or buffer added. • 6. Prior to assay, cell and buffer-only incubation plates were preincubated for 10 mins at 37° C. • 7. The assay was initiated by adding compounds, 3.3 μL of 1 mM in 10% DMSO-90% Buffer; final DMSO concentration is 0.1%. • 8. Samples were taken at regular timepoints (0, 5, 10, 20, 40, 60 min) until 60 mins. • 9. Sample volume was 40 μL and added to 160 μL of crash solvent (acetonitrile with internal standard) and stored on ice. • 10. At the end of the assay, the crash plates were centrifuged at 3500 rpm for 20 mins at 4° C. • 11. 80 μL of clear supernatant was removed and mixed with 80 μL of deionised water before being analysed by LC-MS/MS.
(§9) Raw LC-MS/MS data were exported to, and analysed in, Microsoft Excel for determination of intrinsic clearance. The percentage remaining of a compound was monitored using the peak area of the initial concentration as 100%. Intrinsic clearance and half-life values were calculated using a graph of the natural log of percentage remaining versus the time of reaction in minutes. Half-life (min) and intrinsic clearance (Clint in μL min^−1 10^−6 cells) values were calculated using the gradient of the graph (the elimination rate constant, k) and Equations 1 and 2.

[4] = Hepatocyte stability assay (human); format: in vitro ADME; conditions: human, cryopreserved hepatocytes, 10 μM compound, 60 min, read-out: T½
Source text: as §7, §8, §9

[5] = system: hepatocytes; experiment: Hepatocyte stability assay (mouse); format: in vitro ADME; conditions: 10 μM compound, 60 min
Source text: as §7, §8, §9

[6] = Hepatocyte stability assay (mouse); format: in vitro ADME; conditions: mouse, cryopreserved hepatocytes, 10 μM compound, 60 min, read-out: T½
Source text: as §7, §8, §9

SMILES	IC50 [1]	IC50 [2]	Clint [3]	half-life at 10 μM [4]	Clint [5]	half-life at 10 μM [6]
C=C(CC(=O)O[C@H](c1ccc(C(F)(F)F)cc1)C(F)(F)F)C(=O)O [Example 34, (R)-2-methylene-4-oxo-4-(2,2,2-trifluoro-1-(4-(trifluoromethyl)phenyl)ethoxy)butanoic acid]	12.2 µM	> 31.6 µM	26 μL min^−1 10^−6 cells	0.867 h	48 μL min^−1 10^−6 cells	0.433 h
C=C(CC(=O)OC1(c2ccc(C(F)(F)F)cc2)CC2(CCC2)C1)C(=O)O [Example 35, 2-methylene-4-oxo-4-((2-(4-(trifluoromethyl)phenyl)spiro[3.3]heptan-2-yl)oxy)butanoic acid]	8.8 µM	> 31.6 µM	14 μL min^−1 10^−6 cells	1.43 h	73 μL min^−1 10^−6 cells	0.5 h
C=C(C(=O)O)C1(C(=O)OC2(c3ccc(C(F)(F)F)cc3)CCC2)CC1 [Example 39, 2-(1-((1-(4-(trifluoromethyl)phenyl)cyclobutoxy)carbonyl)cyclopropyl)acrylic acid]	1.5 µM	> 100 µM	18 μL min^−1 10^−6 cells	1.08 h	45 μL min^−1 10^−6 cells	0.8 h
C=C(CC(=O)O[C@]1(c2ccc(C(F)(F)F)cc2)C[C@H](C#N)C1)C(=O)O [Example 41, 4-((cis)-3-cyano-1-(4-(trifluoromethyl)phenyl)cyclobutoxy)-2-methylene-4-oxobutanoic acid]	2.1 µM	> 31.6 µM	<3 μL min^−1 10^−6 cells	> 7.67 h	8 μL min^−1 10^−6 cells	4.87 h
C=C(CC(=O)O[C@]1(c2ccc(C(F)(F)F)cc2)C[C@H](OC)C1)C(=O)O [Example 42, 4-((cis)-3-methoxy-1-(4-(trifluoromethyl)phenyl)cyclobutoxy)-2-methylene-4-oxobutanoic acid]	17.1 µM	> 31.6 µM	4 μL min^−1 10^−6 cells	7.47 h	<3 μL min^−1 10^−6 cells	> 7.67 h
C=C(CC(=O)O[C@]1(c2ccc(C(F)(F)F)cc2)C[C@H](C)C1)C(=O)O [Example 45, (cis)-4-(3-methyl-1-(4-(trifluoromethyl)phenyl)cyclobutoxy)-2-methylene-4-oxobutanoic acid]	3.4 µM	> 100 µM	<3 μL min^−1 10^−6 cells	> 7.67 h	8 μL min^−1 10^−6 cells	2.6 h
C=C(CC(=O)OC1(c2ccc(C(F)(F)F)cn2)COC1)C(=O)O [Example 46, 2-methylene-4-oxo-4-(3-(5-(trifluoromethyl)pyridin-2-yl)oxetan-3-yloxy)butanoic acid]	4.1 µM	> 31.6 µM	<3 μL min^−1 10^−6 cells	> 7.67 h	<3 μL min^−1 10^−6 cells	> 7.67 h
C=C(CC(=O)OC1(c2ccc(C(F)(F)F)cc2)CCOCC1)C(=O)O [Example 47, 2-methylene-4-oxo-4-((4-(4-(trifluoromethyl)phenyl)tetrahydro-2H-pyran-4-yl)oxy)butanoic acid]	6.7 µM	> 100 µM	<3 μL min^−1 10^−6 cells	> 7.67 h	<3 μL min^−1 10^−6 cells	> 7.67 h
C=C(CC(=O)OC1(c2ccc(C(F)(F)F)cc2)CS(=O)(=O)C1)C(=O)O [Example 49, 4-((1,1-dioxido-3-(4-(trifluoromethyl)phenyl)thietan-3-yl)oxy)-2-methylene-4-oxobutanoic acid]	5 µM	> 100 µM	91 μL min^−1 10^−6 cells	0.25 h	68 μL min^−1 10^−6 cells	0.317 h
C=C(CC(=O)OC1(c2ccc(Br)cn2)CCC1)C(=O)O [Example 50, 4-(1-(5-bromopyridin-2-yl)cyclobutoxy)-2-methylene-4-oxobutanoic acid]	1.5 µM	> 100 µM	<3 μL min^−1 10^−6 cells	> 7.67 h	4 μL min^−1 10^−6 cells	7 h
C=C(CC(=O)OC1(c2ccc(Cl)cn2)CCC1)C(=O)O [Example 51, 4-(1-(5-chloropyridin-2-yl)cyclobutoxy)-2-methylene-4-oxobutanoic acid]	6.4 µM	> 31.6 µM	<3 μL min^−1 10^−6 cells	> 7.67 h	<3 μL min^−1 10^−6 cells	> 7.67 h
C=C(CC(=O)OC1(c2ncc(C(F)(F)F)cn2)CCC1)C(=O)O [Example 52, 2-methylene-4-oxo-4-(1-(5-(trifluoromethyl)pyrimidin-2-yl)cyclobutoxy)butanoic acid]	11.7 µM	> 100 µM	<3 μL min^−1 10^−6 cells	> 7.67 h	5 μL min^−1 10^−6 cells	5.12 h
C=C(CC(=O)OC(C)(C)c1ccc(C(F)(F)F)cn1)C(=O)O [Example 57, 2-methylene-4-oxo-4-((2-(5-(trifluoromethyl)pyridin-2-yl)propan-2-yl)oxy)butanoic acid]	6.6 µM	> 31.6 µM	<3 μL min^−1 10^−6 cells	> 7.67 h	10 μL min^−1 10^−6 cells	2.52 h
C=C(C(=O)O)C(C)(C)C(=O)OC1(c2ccc(C(F)(F)F)cn2)CCC1 [Example 59, 3,3-dimethyl-2-methylene-4-oxo-4-(1-(5-(trifluoromethyl)pyridin-2-yl)cyclobutoxy)butanoic acid]	2.9 µM	> 31.6 µM	11 μL min^−1 10^−6 cells	2.3 h	<3 μL min^−1 10^−6 cells	> 7.67 h
C=C(CC(=O)OC1(c2ccc(C(F)(F)F)cc2)CC2(CC2)C1)C(=O)O [Example 61, 2-methylene-4-oxo-4-((5-(4-(trifluoromethyl)phenyl)spiro[2.3]hexan-5-yl)oxy)butanoic acid]	5.5 µM	> 100 µM	6 μL min^−1 10^−6 cells	3.58 h	21 μL min^−1 10^−6 cells	1.72 h
